Results as given in US9926276B2, “Substituted benzamides with activity towards EP4 receptors” (DRACONIS PHARMA, S.L., priority 2013, dated 2018).

Assays:
human EP4 receptor [1] = biological target: T1, human EP4 receptor (Homo sapiens, UniProt P35408); experiment: Human EP4 receptor radioligand binding assay (Test 1); set-up: expressed in transfected cells; host or cells: HEK-293 cell membranes; conditions: [3H]-PGE2 1 nM, transfected HEK-293 cell membranes; for Results of Test 1 (Binding assay, % inh): at 10 μM; for inhibition at 10 µM: read-out: Results of Test 1 (Binding assay, % inh)
T1 sequence (P35408 whole entry): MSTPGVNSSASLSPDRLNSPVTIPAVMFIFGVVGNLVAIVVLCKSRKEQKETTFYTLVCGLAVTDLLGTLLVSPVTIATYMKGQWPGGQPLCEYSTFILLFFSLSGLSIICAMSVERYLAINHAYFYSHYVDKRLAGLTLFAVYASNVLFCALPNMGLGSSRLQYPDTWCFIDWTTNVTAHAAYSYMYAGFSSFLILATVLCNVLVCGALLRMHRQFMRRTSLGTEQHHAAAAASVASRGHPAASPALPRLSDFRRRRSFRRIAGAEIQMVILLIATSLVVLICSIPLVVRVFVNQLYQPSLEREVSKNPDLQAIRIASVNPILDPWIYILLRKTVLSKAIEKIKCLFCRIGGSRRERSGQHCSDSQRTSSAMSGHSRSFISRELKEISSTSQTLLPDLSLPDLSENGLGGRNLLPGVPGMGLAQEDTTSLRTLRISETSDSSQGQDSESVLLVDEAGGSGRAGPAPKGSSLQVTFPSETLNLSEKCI
Protocol: Test 1: Human EP4 Receptor Radioligand Binding Assay
To investigate binding properties of EP4 receptor ligands to human EP4 receptor, transfected HEK-293 cell membranes and [3H]-PGE2 (Perkin Elmer) were used. In 96-well plates the assay was carried out with a total reaction volume of 250 μl, containing 25 μl of membrane suspension (30 μg protein/well), 25 μl of [3H]-PGE2 (1 nM) in either absence or presence of 25 μl of either buffer or PGE2 (10 μM) for total and non-specific binding, respectively. Binding buffer contained 25 mM MES, 10 mM MgCl2 and 1 mM EDTA at pH 6.0. Plates were incubated at 25° C. for 120 minutes. After the incubation period, 200 μl of incubate were transferred to MultiScreen HTS, FB plates (Millipore), filtered and plates were washed 6 times with ice-cold 10 mM MES, 0.01% BSA at pH 6.0. Filters were dried and counted in a MicroBeta scintillation counter (Perkin-Elmer) using EcoScint liquid scintillation cocktail.
Percentage inhibition was calculated relating compounds activity to the 0% inhibition of the wells incubated with 1 nM [3H]-PGE2 alone (total binding) and 100% inhibition of the wells incubated with 1 nM [3H]-PGE2 plus 10 μM PGE2 (non-specific binding).

human EP4 receptor [2] = biological target: T1, human EP4 receptor; experiment: Measurement of cAMP responses by Homogeneous Time Resolved Fluorescence (Test 2); assay type: cell-based; set-up: expressed in transfected cells; conditions: for Results of Test 2 (Functional assay, antagonist % inh): at 10 μM, PGE2 1 nM, HEK-293 cells stably expressing human EP4; for inhibition at 10 µM: HEK293, PGE2 1 nM, HEK-293 cells stably expressing human EP4, read-out: Results of Test 2 (Functional assay, antagonist % inh)
Protocol: Test 2: Measurement of cAMP Responses by Homogeneous Time Resolved Fluorescence
cAMP measurements on HEK-293 cells that stably expressed human EP4 receptors were performed by using a system based on Homogeneous Time Resolved Fluorescense (HTRF). This technology allows the direct measurement of cAMP in living cells. The principle of this assay is based on competition between cAMP produced by cells and cAMP-d2 conjugate for the binding with monoclonal anti-cAMP-cryptate conjugate. The HTRF cAMP kit from CisBio was used according to the manufacturer's directions. The experimental procedure was performed as stated below.
Suspended cells (30,000 cells per well) were added to 96-well culture plates in 30 μl of Optimem supplemented with 500 μM IBMX. Compounds were then added in 10 μl of stimulation buffer and incubated at 25° C. for 30 minutes followed by 10 μl of PGE2 to a final concentration of 1 nM. After 30 minutes at 25° C., the reaction was stopped lysing the cells with a mixture of 25 μl of cryptate and 25 μl of cAMP-d2 prepared in the lysis buffer supplied by the manufacturer. Plates were incubated for an additional hour at room temperature and read at 665 nm/620 nm using an UltraEvolution Plate reader (Tecan).
Antagonist percentage inhibition was calculated relating compounds activity to the 0% inhibition of the wells incubated with 1 nM PGE2 alone and 100% inhibition of the wells incubated with 1 nM PGE2 plus 1 μM of the reference antagonist.

Compound	Results of Test 1 (Binding assay, % inh) (human EP4 receptor [1])	Results of Test 2 (Functional assay, antagonist % inh) (human EP4 receptor [2])	inhibition at 10 µM (human EP4 receptor [1]) [%]	inhibition at 10 µM (human EP4 receptor [2]) [%]
COc1cccc(-c2ccc(Cl)c(C(=O)Nc3c(Cl)cc(C(=O)O)cc3Cl)c2)c1 [Example 17, 3,5-Dichloro-4-(4-chloro-3′-methoxybiphenyl-3-ylcarboxamido)benzoic acid]	# (% inh >75)	$ (% inh >75)	–	–
N#Cc1cccc(-c2ccc(Cl)c(C(=O)Nc3c(Cl)cc(C(=O)O)cc3Cl)c2)c1 [Example 18, 3,5-Dichloro-4-(4-chloro-3′-cyanobiphenyl-3-ylcarboxamido)benzoic acid]	# (% inh >75)	$ (% inh >75)	–	–
O=C(O)c1cc(Cl)c(NC(=O)c2cc(-c3cccc(Cl)c3)ccc2Cl)c(Cl)c1 [Example 19, 3,5-Dichloro-4-(3′,4-dichlorobiphenyl-3-ylcarboxamido)benzoic acid]	# (% inh >75)	$ (% inh >75)	–	–
Cc1ccc(-c2cccc(Cl)c2)cc1C(=O)Nc1c(C)cc(C(=O)O)cc1C [Example 20, 4-(3′-Chloro-4-methylbiphenyl-3-ylcarboxamido)-3,5-dimethylbenzoic acid]	# (% inh >75)	$ (% inh >75)	–	–
Cc1cc(C(=O)O)ccc1NC(=O)c1cc(-c2cccc(Cl)c2)ccc1Cl [Example 21, 4-(3′,4-Dichlorobiphenyl-3-ylcarboxamido)-3-methylbenzoic acid]	# (% inh >75)	$ (% inh >75)	–	–
Cc1cc(C(=O)O)cc(Cl)c1NC(=O)c1cc(-c2cccc(Cl)c2)ccc1Cl [Example 22, 3-Chloro-4-(3′,4-dichlorobiphenyl-3-ylcarboxamido)-5-methylbenzoic acid]	# (% inh >75)	$ (% inh >75)	–	–
Cc1cc(C(=O)O)cc(C)c1NC(=O)c1nc(-c2cccc(Cl)c2)ccc1Cl [Example 23, 4-(3-Chloro-6-(3-chlorophenyl)picolinamido)-3,5-dimethylbenzoic acid]	–	–	> 75	> 75
Cc1cc(C(=O)O)cc(C)c1NC(=O)c1cc(OCC(C)C)ccc1Cl [Example 24, 4-(2-Chloro-5-isobutoxybenzamido)-3,5-dimethylbenzoic acid]	–	–	> 75	> 75
CC(C)COc1ccc(Cl)c(C(=O)Nc2c(Cl)cc(C(=O)O)cc2Cl)c1 [Example 25, 3,5-Dichloro-4-(2-chloro-5-isobutoxybenzamido)benzoic acid]	–	–	> 75	> 75
O=C(O)c1cc(Cl)c(NC(=O)c2cc(OCc3ccc(F)cc3F)ccc2Cl)c(Cl)c1 [Example 35, 3,5-Dichloro-4-(2-chloro-5-(2,4-difluorobenzyloxy)benzamido)benzoic acid]	–	–	> 75	> 75
O=C(O)c1cc(Cl)c(NC(=O)c2cc(OCc3ccc(Cl)cc3F)ccc2Cl)c(Cl)c1 [Example 36, 3,5-Dichloro-4-(2-chloro-5-(4-chloro-2-fluorobenzyloxy)benzamido)benzoic acid]	–	–	> 75	> 75
Cc1ccc(C(=O)O)cc1NC(=O)c1cc(-c2cccc(Cl)c2)ccc1C [Example 38, 3-(3′-Chloro-4-methylbiphenyl-3-ylcarboxamido)-4-methylbenzoic acid]	# (% inh >75)	$ (% inh >75)	–	–
Cc1ccc(C(=O)O)cc1NC(=O)c1nc(-c2cccc(Cl)c2)ccc1Cl [Example 42, 3-(3-Chloro-6-(3-chlorophenyl)picolinamido)-4-methylbenzoic acid]	–	–	> 75	> 75
Cc1ccc(-c2cccc(Cl)c2)cc1C(=O)Nc1cc(C(=O)O)ccc1C(C)C [Example 45, 3-(3′-Chloro-4-methylbiphenyl-3-ylcarboxamido)-4-isopropylbenzoic acid]	# (% inh >75)	$ (% inh >75)	–	–
CC(C)c1ccc(C(=O)O)cc1NC(=O)c1cc(-c2cccc(Cl)c2)ccc1Cl [Example 46, 3-(3′,4-Dichlorobiphenyl-3-ylcarboxamido)-4-isopropylbenzoic acid]	# (% inh >75)	$ (% inh >75)	–	–
O=C(O)c1cc(Cl)c(NC(=O)c2nc(-c3cccc(Cl)c3)ccc2Cl)c(Cl)c1 [Example 47, 3,5-Dichloro-4-(3-chloro-6-(3-chlorophenyl)picolinamido)benzoic acid]	–	–	> 75	> 75
Cc1cc(C(=O)O)cc(Cl)c1NC(=O)c1nc(-c2cccc(Cl)c2)ccc1Cl [Example 48, 3-Chloro-4-(3-chloro-6-(3-chlorophenyl)-picolinamido)-5-methylbenzoic acid]	–	–	> 75	> 75
O=C(O)c1cc(Cl)c(NC(=O)c2nc(N3CCCCC3)ccc2Cl)c(Cl)c1 [Example 57, 3,5-Dichloro-4-(3-chloro-6-(piperidin-1-yl)picolinamido)benzoic acid]	–	–	> 75	> 75
Cc1ccc(-c2cccc(C(F)(F)F)c2)cc1C(=O)Nc1c(C)cc(C(=O)[O-])cc1C.[Na+] [Example 58, Sodium 3,5-dimethyl-4-(4-methyl-3′-(trifluoromethyl)biphenyl-3-ylcarboxamido)benzoate]	# (% inh >75)	$ (% inh >75)	–	–
COc1cc(Cl)cc(-c2ccc(C)c(C(=O)Nc3c(C)cc(C(=O)O)cc3C)c2)c1 [Example 59, 4-(3′-Chloro-5′-methoxy-4-methylbiphenyl-3-ylcarboxamido)-3,5-dimethylbenzoic acid]	# (% inh >75)	$ (% inh >75)	–	–
O=C(O)c1cc(Cl)c(NC(=O)c2cc(-c3nccc(C(F)(F)F)n3)ccc2Cl)c(Cl)c1 [Example 60, Sodium 3,5-dichloro-4-(2-chloro-5-(4-(trifluoromethyl)pyrimidin-2-yl)benzamido)benzoate]	–	–	> 75	> 75
